Results: article PMC9189929, “Synthesis, Screening and Characterization of Novel Potent Arp2/3 Inhibitory Compounds Analogous to CK-666” (Frontiers in Pharmacology, 2022)
Values after ≈ are worked out from the molar mass of the structure shown. Blank lines part the entries; values can stand above or below the molecule they belong to.

Assays:
B16-F1 cells [1] = assay: Cell viability (MTS) of B16-F1 cells; type: cell-based, mouse; settings: 100 μM, 4 h
Experimental: Cell viability was assessed using the CellTiter 96® AQueous One Solution Cell Proliferation kit (Promega) on a Multiscan Spectrum spectrophotometer (Thermo LifeSciences), with absorbance read at 490 nm.

MCF10A cells = assay: EdU incorporation / cell cycle progression screen in MCF10A cells; type: cell-based, human; settings: for Outcome of EdU incorporation screen: 0.025 to 100 μM; for IC50: Homo sapiens, MCF-10A, 18 h treatment, rough values from Figure 1 graphs, read-out: IC50 (concentration required for 50% decrease of EdU-positive cells)
Experimental: For cell cycle progression using EdU, MCF10A cells were seeded in 384-well plates at a density of 800 cells per well. […] EdU from kit C10337 (ThermoFischer Scientific, Waltham, MA, United States) was then added to the cells at 10 μM and incubated for 2.5 h. Cells were fixed in 4% paraformaldehyde for 30 min at room temperature. Click-iT reaction was performed for 1 h at room temperature, protected from light, with 5 µM Alexa Fluor 488 azide in (100 mM Tris, 1 mM CuSO4, 50 mM Ascorbic Acid, pH 8.5). Nuclei were counterstained with Hoechst 33,342 (Thermo Fisher Scientific). Imaging and analysis were performed using the ImageXpress Micro XL High-Content Screening System (Molecular Devices LLC, San Jose, CA, United States). IC50 values were determined by sigmoidal curve fitting using GraphPad Prism six software.

[2] = Maximum solubility in seawater; type: physicochemical; settings: saline or isotonic, kinetic from dmso stock, visible crystals formed at higher concentrations
Experimental: (§1) Stock solutions of compounds were prepared in DMSO at 50–250 mM concentration followed by a 10-fold dilution with 96% EtOH. This procedure enhanced the solubility of the test compounds in the salty seawater. Maximal tolerated concentrations of DMSO and EtOH in the assay were determined to be 0.05 and 1%, respectively. Higher concentrations of either DMSO (>0.1%) or EtOH (>1%) caused nonspecific alterations and retardation of the sea urchin embryo development independent of the treatment stage. Maximum solubility of compounds 15, 59, 69, and 71 was about 5–20 mM in seawater, since visible crystals formed at higher concentrations.

sea urchin embryos [3] = assay: Sea urchin embryo development assay; type: in vivo, Paracentrotus lividus
Experimental: The procedure was described in detail in [Semenova et al., 2018]. Briefly, adult sea urchins, Paracentrotus lividus L (Echinidae), were collected from the Mediterranean Sea on the Cyprus coast and kept in an aerated seawater tank. Gametes were obtained by intracoelomic injection of 0.5 M KCl. Eggs were washed with filtered seawater and fertilized by adding drops of diluted sperm. Embryos were cultured at room temperature under gentle agitation with a motor-driven plastic paddle (60 rpm) in filtered seawater. […] For treatment with test compounds, 5 ml aliquots of embryo suspension were transferred to six-well plates and incubated at a concentration of 1,000–2,000 embryos/ml. For images, sedimented embryos were concentrated in the center of the well by gentle rotation of the culture plate, and 200 μl aliquots containing several hundred embryos were used to take pictures (up to 20 images from different fields). Embryos selected for Figure 4 were representative of the population.
as §1
The effects were assessed after exposure of fertilized eggs (8–15 min post fertilization, 45–55 min before the first mitotic cycle completion) to 2-fold decreasing concentrations of the compound. Embryonic development was monitored until the beginning of active feeding at four-arm pluteus stage (33–36 h postfertilization). Developmental abnormalities were estimated quantitatively as minimal effective concentration (MEC), resulting in inhibition of archenteron elongation or skeletal spicule formation.

Arp2/3 [4] = molecular target: T1, Arp2/3 (Bos taurus, UniProt A7MB62+P61157); assay: Pyrene-actin polymerization assay; type: biochemical, bovine; settings: 20 nM Arp2/3, 250 nM N-WASP VCA; for IC50: 1.5 μM actin (10% pyrenyl-labeled), read-out: IC50 of Arp2/3-mediated actin polymerization; for Arp2/3 inhibition reached at saturation: 1.5 μM actin
T1 construct: purchased Cytoskeleton, Inc
Experimental: Actin was purified from rabbit muscle and was pyrenyl-labeled ([Carlier et al., 1984]; [Malm, 1984]). Arp2/3 was from Cytoskeleton, Inc. VCA domain of N-WASP was purified as previously described ([Clainche et al., 2003]). Pyrene-actin polymerization assays were performed as previously ([Romero et al., 2007]). Briefly, CaATP-actin was converted into MgATP-actin in (5 mM Tris, 0.2 mM ATP, 0.1 mM CaCl2, 1 mM DTT, 1 mM MgCl2, and 0.2 mM EGTA, pH 7.6) and kept on ice for no more than 1 h. Actin polymerization was monitored in (5 mM Tris, 50 mM KCl, 0.2 mM ATP, 0.1 mM CaCl2, 1 mM DTT, 1 mM MgCl2, 0.2 mM EGTA, pH 7.6) in the presence of 2% DMSO alone or 2% DMSO containing the appropriated compound concentration. The increase in fluorescence of 10% pyrenyl-labeled actin was monitored using a Safas spectrofluorimeter (λexc = 366 nm, λem = 407 nm). The maximum rate of actin polymerization was derived from the maximum slope of the polymerization curve multiplied by [total polymer]/(RFUmax—RFUmin) [total polymer] is the total actin minus the critical concentration (0.1 μM) and RFU, Relative Fluorescence Unit. The maximum elongation rates of actin polymerization were plotted as a function of the concentration of the different compounds. For CK-666, 59, 69 and 71, curves were fitted with the following equation to determine the IC50. Mrate= Rmax−Rmax−Rmin/1+IC50/(Compound Conc.) where Mrate is the measured maximum rate of actin polymerization at a given compound concentration, Rmax is the maximum rate of actin polymerization with no compound, and Rmin is the maximum rate of actin polymerization at saturating concentration of compound.
The curve of compound 15 was fitted with a linear decay. The IC50 was determined at half inhibition of actin polymerization.

B16-F1 cells [5] = assay: Lamellipodium formation in B16-F1 cells (cortactin immunofluorescence); type: cell-based, mouse
Experimental: Lyophilized compounds were resuspended with fresh DMSO from sealed vials (cell biology grade). Compounds, stored at +4°C, were used within a week. B16-F1 cells were seeded onto glass coverslips coated for 1 h with 25 μg/ml laminin (Sigma) in (50 mM Tris, 150 mM NaCl, pH 7.4). […] Cell were then processed for immunofluorescence.
Cells were fixed in 3.2% PFA on PBS, then quenched with 50 mM NH4Cl and permeabilised with 0.5% Triton X-100. After blocking in 2% BSA cells were incubated with antibodies (1–5 μg/ml for the primary, 5 μg/ml for the secondary). Total actin in cells was visualized by phalloidin staining. Nuclei were stained with 0.3 μg/ml DAPI (Roche). Coverslips were mounted in Dako Fluorescence Mounting Medium (Agilent). For immunofluorescence, ARPC2 rabbit polyclonal antibody (Millipore, 07–227), Cortactin mouse monoclonal 4F11 (Millipore, 05–180) were used. Secondary goat anti-mouse and anti-rabbit antibodies conjugated with Alexa Fluor 555 and 647 respectively were from Life Technologies. Phalloidin conjugated with Alexa Fluor 488 was from Tebu-bio.
(§2) Image analysis was performed in ImageJ or FIJI software. To measure wound healing, boundaries of the wound were drawn manually at different time points, then wound size was measured.

B16-F1 cells [6] = assay: Wound healing (cell migration) of B16-F1 cells; type: cell-based, mouse
Experimental: For the wound healing, B16-F1 cells were seeded onto 8-well Ibidi dishes coated with laminin, and grown to confluence. Wounds in the cell monolayer were obtained by scratching the monolayer with a pipet tip. Detached cells were immediately washed away and new medium containing the various compounds was added. Cells were then used for videomicroscopy.
Videomicroscopy was performed on an inverted Axio Observer microscope (Zeiss) equipped with a Pecon Zeiss incubator XL multi S1 RED LS (Heating Unit XL S, Temp module, CO2 module, Heating Insert PS and CO2 cover), Definite focus module and a Hamamatsu camera C10600 Orca-R2. Phase contrast images were taken every 30 min for 24 h using the 10X/0.25 Plan-Apochromat air objective. For immunofluorescence, slides were observed and imaged with the 63X/1.4 Plan-Apochromat oil objective. Fluorophores were excited with the HBO 100 W lamp (Osram) installed in the HXP 120 Metal halide fluorescence light source (Zeiss).
as §2

fish keratocytes = system: fish keratocytes; design: method as in Nolen et al., 2009; settings: ref Nolen et al., 2009; cited from earlier work
sea urchin embryos [7] = system: sea urchin embryos; design: method as in Sepúlveda-ramírez et al., 2018; settings: 100 μM; ref Sepúlveda-ramírez et al., 2018; cited from earlier work
Arp2/3 [8] = settings: introduction statement, no reference given; read-out: IC50 of inhibition of Arp2/3 activation; cited from earlier work
[9] = treated at zygote stage, monitored to four-arm pluteus
[10] = observed up to four-arm mid-pluteus stage

Compound: Cc1[nH]c2ccc(OC(F)(F)F)cc2c1CCNC(=O)c1ccc(S(=O)(=O)N(CCCl)CCCl)cc1 [Compound 52, 4-{[Bis(2-chloroethyl)amino]sulfonyl}-N-{2-[2-methyl-5-(trifluoromethoxy)-1H-indol-3-yl]ethyl}benzamide]
Toxicity to B16-F1 cells (viability, MTS) (B16-F1 cells [1]): reduced the cell population by half or more
Outcome of EdU incorporation screen (MCF10A cells): scored positive
IC50 (MCF10A cells): 3.17 µM

solubility [2]: 5 to 20 µM (≈ 2.67 to 10.7 µg/mL)
Developmental abnormality (sea urchin embryos [3]; 5 μM): suppressed plutei growth
Developmental abnormality (sea urchin embryos [3]; 20 μM): defective gastrulation was observed
IC50 (Arp2/3 [4]): 539 µM
Arp2/3 inhibition reached at saturation (Arp2/3 [4]): saturation was not reached
Cell rounding and detachment in wound healing assay (B16-F1 cells [6]; 25 µM): still induced cell rounding
Compound: Cc1[nH]c2c(C(F)(F)F)cccc2c1CCNC(=O)c1cc(S(=O)(=O)NC2CC2)c(Cl)cc1Cl [Compound 71, 2,4-Dichloro-5-[(cyclopropylamino)sulfonyl]-N-{2-[2-methyl-7-(trifluoromethyl)-1H-indol-3-yl]ethyl}benzamide]
Minimum effective concentration, Systemic Toxicity (sea urchin embryos [3]; [9]): 5 µM
Dose-dependent inhibition of lamellipodium formation, potency relative to CK-666 (B16-F1 cells [5]; dose-dependent assay (Figure 2D)): significantly more potent than CK-666
Outcome of EdU incorporation screen (MCF10A cells): scored positive
IC50 (MCF10A cells): 3.58 µM
Cell rounding and detachment in wound healing assay (B16-F1 cells [6]; 100 µM): induced cell rounding followed by detachment from the substrate
Inhibition of cell migration (wound healing) compared with 100 µM CK-666 (B16-F1 cells [6]; compound at 25 µM): inhibited cell migration even more effectively

Compound: Cc1[nH]c2ccc(F)cc2c1CCNC(=O)c1cc(S(=O)(=O)N(C)C)c(Cl)cc1Cl [Compound 64, 2,4-Dichloro-5-[(dimethylamino)sulfonyl]-N-[2-(5-fluoro-2-methyl-1H-indol-3-yl)ethyl]benzamide]
Toxicity to B16-F1 cells (viability, MTS) (B16-F1 cells [1]): reduced the cell population by half or more
Outcome of EdU incorporation screen (MCF10A cells): scored positive
IC50 (MCF10A cells): 6.66 µM

IC50 (Arp2/3 [4]): 23 µM
Arp2/3 inhibition reached at saturation (Arp2/3 [4]): 78%
Compound: Cc1[nH]c2ccccc2c1CCNC(=O)c1ccccc1F [CK-666, 2-Fluoro-N-[2-(2-methyl-1H-indol-3-yl)ethyl]benzamide]
Inhibition of migration of fish keratocytes (fish keratocytes): unable to inhibit the migration of fish keratocytes
Developmental phenotype (sea urchin embryos [3]; 100 μM, 22°C): Defective gastrulation
Effect on archenteron elongation (sea urchin embryos [3]; [10]): inhibited elongation of the archenteron at approximately half-size
Effect on primary mesenchyme cell (PMC) migration (sea urchin embryos [3]; [10]): altered PMC migration resulting in the lack of ventrolateral clusters and spicules
Minimum effective concentration, Inhibition of Archenteron elongation (sea urchin embryos [3]; [9]): 50 µM
Minimum effective concentration, Inhibition of Spicule formation (sea urchin embryos [3]; [9]): 25 µM
Effect on cleavage and embryo spinning (antimitotic microtubule destabilizing effects) (sea urchin embryos [3]; up to 20–50 μM): did not affect cleavage and did not induce embryo spinning
Effect on PMC migration and spiculogenesis (sea urchin embryos [7]): alters proper migration of PMC and formation of ventrolateral clusters with ensuing inhibition of spiculogenesis
Inhibition of lamellipodium formation (B16-F1 cells [5]; 100 μM, 1 h): blocked lamellipodium formation almost completely
IC50 (MCF10A cells): 56.3 µM
Inhibition of wound healing (B16-F1 cells [6]; 100 µM): inhibits wound healing
IC50 (Arp2/3 [8]): ~50 µM
